Laboratory results published in PubChem BioAssay AID832 (PCMD, 2007).
Inconclusive results are not listed. The source made the active and inactive calls. The rule behind the calls is not given here.

These compounds were tested against Cathepsin G (Homo sapiens) (UniProt P08311) (assay: IC50 of CTSG protease blockers – biochemical, confirmation, dose response (AID 832)). Conditions: purified cathepsin G enzyme activity, signal read-out.
Chain of Cathepsin G (Homo sapiens) (P08311 21-244 limits assumed): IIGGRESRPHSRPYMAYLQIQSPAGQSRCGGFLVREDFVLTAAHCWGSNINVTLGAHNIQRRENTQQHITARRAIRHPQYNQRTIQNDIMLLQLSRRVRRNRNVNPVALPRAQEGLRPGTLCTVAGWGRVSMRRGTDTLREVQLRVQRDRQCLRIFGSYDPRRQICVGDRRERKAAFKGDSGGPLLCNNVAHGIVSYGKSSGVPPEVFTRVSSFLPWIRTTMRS

Structure (SMILES) | IC50
O=C1CCCC(O)=C1C=NCCc1ccccc1 | > 50 µM (inactive)
COc1ccc(C2C(C(=O)c3cccs3)=C(O)C(=O)N2c2nncs2)cc1 (stereo not drawn) | > 50 µM (inactive)
COC(=O)c1sc(N2C(=O)C(O)=C(C(=O)c3ccc(C)o3)C2c2ccc(F)cc2)nc1C (stereo not drawn) | > 50 µM (inactive)
